Assay results as given in PubChem BioAssay (NCI).
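Values below derive from 48-hour exposures of cells grown in 96-well plates, with endpoints linearly interpolated between the two concentrations bracketing the appropriate inhibition level. TGI: total growth inhibition.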

Assays:
Assay in all cases: DTP human tumour cell line panel, 48 h
[1] = test system: M14 melanoma
[2] = test system: ACHN renal
[3] = test system: HOP-62 NSCLC
[4] = test system: SF-295 CNS
[5] = test system: CAKI-1 renal
[6] = test system: HCT-116 colon
[7] = test system: HOP-92 NSCLC
[8] = test system: A549 NSCLC
[9] = test system: SK-OV-3 ovarian
[10] = test system: SNB-75 CNS
[11] = test system: KM20L2 colon
[12] = test system: RPMI-8226 leukemia
[13] = test system: DMS 114 small cell lung
[14] = test system: TK-10 renal
[15] = test system: M19-MEL melanoma
[16] = test system: SNB-19 CNS
[17] = test system: OVCAR-4 ovarian
[18] = test system: IGROV1 ovarian
[19] = test system: XF 498 CNS
[20] = test system: RXF 393 renal
[21] = test system: NCI-H460 lung
[22] = test system: SN12C renal
[23] = test system: EKVX NSCLC
[24] = test system: MALME-3M melanoma
[25] = test system: OVCAR-8 ovarian
[26] = test system: SW-620 colon
[27] = test system: DLD-1 colon
[28] = test system: UACC-62 melanoma
[29] = test system: SNB-78 CNS
[30] = test system: SK-MEL-2 melanoma
[31] = test system: SK-MEL-28 melanoma
[32] = test system: OVCAR-3 ovarian
[33] = test system: SK-MEL-5 melanoma
[34] = test system: NCI-H23 lung
[35] = test system: RXF-631 renal
[36] = test system: UACC-257 melanoma
[37] = test system: HCT-15 colon
[38] = test system: LOX IMVI melanoma
[39] = test system: HOP-18 NSCLC
[40] = test system: U251 CNS
[41] = test system: HT29 colon
[42] = test system: UO-31 renal
[43] = test system: COLO 205 colon
[44] = test system: DMS 273 small cell lung
[45] = test system: OVCAR-5 ovarian
[46] = test system: CCRF-CEM leukemia
[47] = test system: SR leukemia
[48] = test system: SF-268 CNS
[49] = test system: NCI-H522 lung
[50] = test system: HCC-2998 colon
[51] = test system: A498 renal
[52] = test system: SF-539 CNS
[53] = test system: LXFL 529 NSCLC
[54] = test system: HL-60(TB) leukemia
[55] = test system: MOLT-4 leukemia
[56] = test system: K-562 leukemia
[57] = test system: KM12 colon
[58] = test system: 786-0 renal
[59] = test system: NCI-H226 lung

## COc1ccc(C2C(C(=O)O)=C(CO)Oc3cc4c(cc32)OCO4)cc1 (centres undefined)
[1]
  TGI: > 100 µM
[2]
  TGI: > 100 µM
[3]
  TGI: > 100 µM
[4]
  TGI: > 100 µM
[5]
  TGI: > 100 µM
[6]
  TGI: > 100 µM
[7]
  TGI: > 100 µM
[8]
  TGI: > 100 µM
[9]
  TGI: > 100 µM
[10]
  TGI: > 100 µM
[11]
  TGI: > 100 µM
[12]
  TGI: > 100 µM
[13]
  TGI: > 100 µM
[14]
  TGI: > 100 µM
[15]
  TGI: > 100 µM
[16]
  TGI: > 100 µM
[17]
  TGI: > 100 µM
[18]
  TGI: > 100 µM
[19]
  TGI: > 100 µM
[20]
  TGI: > 100 µM
[21]
  TGI: > 100 µM
[22]
  TGI: > 100 µM
[23]
  TGI: > 100 µM
[24]
  TGI: > 100 µM
[25]
  TGI: > 100 µM
[26]
  TGI: > 100 µM
[27]
  TGI: > 100 µM
[28]
  TGI: > 100 µM
[29]
  TGI: > 100 µM
[30]
  TGI: > 100 µM
[31]
  TGI: > 100 µM
[32]
  TGI: > 100 µM
[33]
  TGI: > 100 µM
[34]
  TGI: > 100 µM
[35]
  TGI: > 100 µM
[36]
  TGI: > 100 µM
[37]
  TGI: > 100 µM
[38]
  TGI: > 100 µM
[39]
  TGI: > 100 µM
[40]
  TGI: > 100 µM
[41]
  TGI: > 100 µM
[42]
  TGI: > 100 µM
[43]
  TGI: > 100 µM
[44]
  TGI: > 100 µM

## CCC1CN2CCc3cc(OC)c(OC)cc3C2CC1CC1c2cc(OC)c(OC)cc2CCN1C(=O)C(N)Cc1ccccc1 (centres undefined)
[45]
  TGI: 9.55 µM
[1]
  TGI: 2.19 µM
[46]
  TGI: 10.2 µM
[2]
  TGI: 11.8 µM
[3]
  TGI: 7.78 µM
[4]
  TGI: 10.3 µM
[5]
  TGI: 11.2 µM
[6]
  TGI: 1.29 µM
[7]
  TGI: 6.41 µM
[8]
  TGI: 7.85 µM
[47]
  TGI: 11.4 µM
[9]
  TGI: 17.8 µM
[10]
  TGI: 10.6 µM
[11]
  TGI: 3.52 µM
[12]
  TGI: 6.07 µM
[14]
  TGI: 8.53 µM
[48]
  TGI: 13.7 µM
[16]
  TGI: 6.98 µM
[49]
  TGI: 1.73 µM
[50]
  TGI: 5.66 µM
[19]
  TGI: 10.5 µM
[51]
  TGI: 11 µM
[20]
  TGI: 4.37 µM
[21]
  TGI: 9.23 µM
[22]
  TGI: 10.8 µM
[23]
  TGI: 4.37 µM
[24]
  TGI: 6.46 µM
[25]
  TGI: 11.1 µM
[26]
  TGI: 10.9 µM
[27]
  TGI: 14.1 µM
[28]
  TGI: 11.2 µM
[30]
  TGI: 6.1 µM
[31]
  TGI: 10.3 µM
[32]
  TGI: 15.4 µM
[33]
  TGI: 5.34 µM
[52]
  TGI: 7.48 µM
[34]
  TGI: 7.64 µM
[35]
  TGI: 8.11 µM
[53]
  TGI: 11.6 µM
[54]
  TGI: 4.8 µM
[36]
  TGI: 11.6 µM
[55]
  TGI: 1.78 µM
[37]
  TGI: 10.9 µM
[38]
  TGI: 10.9 µM
[56]
  TGI: 1.93 µM
[40]
  TGI: 5.97 µM
[41]
  TGI: 10.4 µM
[57]
  TGI: 10.2 µM
[42]
  TGI: 5.85 µM
[44]
  TGI: 5.22 µM

## CCOC(=O)CN=c1nc(SC)sc2c(C(=O)OCC)nc(Sc3ccccc3)n12
[45]
  TGI: > 100 µM
[1]
  TGI: > 100 µM
[46]
  TGI: > 100 µM
[3]
  TGI: > 100 µM
[5]
  TGI: > 100 µM
[6]
  TGI: > 100 µM
[7]
  TGI: > 100 µM
[47]
  TGI: > 100 µM
[9]
  TGI: > 100 µM
[11]
  TGI: > 100 µM
[12]
  TGI: > 100 µM
[13]
  TGI: > 100 µM
[14]
  TGI: > 100 µM
[15]
  TGI: > 100 µM
[48]
  TGI: > 100 µM
[49]
  TGI: 74.3 µM
[17]
  TGI: > 100 µM
[18]
  TGI: > 100 µM
[50]
  TGI: > 100 µM
[19]
  TGI: > 100 µM
[22]
  TGI: > 100 µM
[23]
  TGI: > 100 µM
[24]
  TGI: > 100 µM
[25]
  TGI: > 100 µM
[26]
  TGI: > 100 µM
[27]
  TGI: > 100 µM
[28]
  TGI: > 100 µM
[30]
  TGI: > 100 µM
[32]
  TGI: > 100 µM
[33]
  TGI: > 100 µM
[35]
  TGI: > 100 µM
[53]
  TGI: > 100 µM
[54]
  TGI: > 100 µM
[36]
  TGI: > 100 µM
[58]
  TGI: > 100 µM
[38]
  TGI: > 100 µM
[59]
  TGI: > 100 µM
[39]
  TGI: > 100 µM
[56]
  TGI: > 100 µM
[41]
  TGI: > 100 µM
[57]
  TGI: > 100 µM
[42]
  TGI: > 100 µM
[43]
  TGI: > 100 µM

## COc1ccc2c(c1)CCC1C3(CCCC21C)OCCO3 (centres undefined)
[45]
  TGI: > 100 µM
[1]
  TGI: 36.3 µM
[46]
  TGI: 40.6 µM
[2]
  TGI: 78.9 µM
[3]
  TGI: 28.4 µM
[4]
  TGI: 40.8 µM
[5]
  TGI: > 100 µM
[6]
  TGI: 30.5 µM
[7]
  TGI: 35.3 µM
[8]
  TGI: 69.7 µM
[47]
  TGI: 45.4 µM
[9]
  TGI: 60.9 µM
[10]
  TGI: 60.3 µM
[11]
  TGI: 39.2 µM
[12]
  TGI: 61.2 µM
[14]
  TGI: > 100 µM
[15]
  TGI: 37.7 µM
[48]
  TGI: 19.9 µM
[16]
  TGI: > 100 µM
[49]
  TGI: 37.4 µM
[17]
  TGI: > 100 µM
[18]
  TGI: 79.4 µM
[50]
  TGI: 44.3 µM
[51]
  TGI: 82.6 µM
[20]
  TGI: 31.1 µM
[21]
  TGI: 46.3 µM
[22]
  TGI: 30.5 µM
[23]
  TGI: 82.3 µM
[24]
  TGI: 58.8 µM
[25]
  TGI: 50.4 µM
[26]
  TGI: 96.2 µM
[27]
  TGI: 34.5 µM
[28]
  TGI: 38 µM
[29]
  TGI: 73.9 µM
[30]
  TGI: 23.5 µM
[31]
  TGI: 35.3 µM
[32]
  TGI: 35.5 µM
[33]
  TGI: 31.1 µM
[52]
  TGI: 26.3 µM
[34]
  TGI: 34.2 µM
[35]
  TGI: > 100 µM
[53]
  TGI: 44.9 µM
[54]
  TGI: 43.2 µM
[36]
  TGI: 62.1 µM
[55]
  TGI: 53.5 µM
[37]
  TGI: 34.2 µM
[58]
  TGI: 38.1 µM
[38]
  TGI: 30.4 µM
[59]
  TGI: 35.7 µM
[39]
  TGI: 64.8 µM
[56]
  TGI: 42.1 µM
[40]
  TGI: 29.4 µM
[41]
  TGI: 33.5 µM
[57]
  TGI: 51.7 µM
[42]
  TGI: 31 µM
[43]
  TGI: 35.4 µM
[44]
  TGI: 40.3 µM
